These are literature values, as cited in patent US20100197704A1, “PHARMACEUTICAL COMPOSITIONS AND METHOD FOR TREATING ACUTE MANIA” (priority 2007, published 2010).

Each structure is given as a SMILES string.

Holding throughout (conditions): cited from earlier work
One data set deals with T1, 5-HT2C (Homo sapiens, UniProt P28335).
T1 sequence (P28335 33-458): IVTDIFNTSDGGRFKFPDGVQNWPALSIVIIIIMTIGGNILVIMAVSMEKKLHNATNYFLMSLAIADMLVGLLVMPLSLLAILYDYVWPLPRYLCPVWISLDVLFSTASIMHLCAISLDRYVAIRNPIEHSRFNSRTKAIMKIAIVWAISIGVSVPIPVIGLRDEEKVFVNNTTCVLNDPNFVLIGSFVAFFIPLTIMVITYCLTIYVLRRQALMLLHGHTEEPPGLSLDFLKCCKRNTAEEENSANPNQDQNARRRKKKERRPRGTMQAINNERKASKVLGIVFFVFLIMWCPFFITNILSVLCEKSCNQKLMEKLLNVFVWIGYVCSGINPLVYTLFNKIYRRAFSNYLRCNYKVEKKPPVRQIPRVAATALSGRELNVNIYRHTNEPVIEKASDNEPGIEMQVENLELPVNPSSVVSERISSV

Data set [1] has as its system adrenergic receptor sites.
Data set [2] deals with T2, serotonin 5-HT1A receptors (Homo sapiens, UniProt P08908).
T2 sequence (P08908 1-422): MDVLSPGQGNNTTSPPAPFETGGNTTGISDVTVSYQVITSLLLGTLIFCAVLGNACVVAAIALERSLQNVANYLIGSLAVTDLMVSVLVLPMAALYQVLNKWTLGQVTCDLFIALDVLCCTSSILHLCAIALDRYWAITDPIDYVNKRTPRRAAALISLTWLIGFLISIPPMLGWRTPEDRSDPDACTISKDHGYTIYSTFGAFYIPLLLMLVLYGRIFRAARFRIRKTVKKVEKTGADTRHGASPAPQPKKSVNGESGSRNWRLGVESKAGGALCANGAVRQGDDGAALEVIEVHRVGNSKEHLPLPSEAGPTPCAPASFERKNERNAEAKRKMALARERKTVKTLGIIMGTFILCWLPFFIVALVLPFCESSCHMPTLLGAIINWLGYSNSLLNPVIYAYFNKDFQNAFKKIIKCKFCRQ

In a further data set the target is histamine H1 (Homo sapiens, UniProt P35367).
Data set [3] has as its target T2, serotonin 5-HT1A receptors. This is another data set of the same source.
For the next data set, the target named is presynaptic D2 receptors (Homo sapiens, UniProt P14416).
Sequence of presynaptic D2 receptors (P14416 whole entry): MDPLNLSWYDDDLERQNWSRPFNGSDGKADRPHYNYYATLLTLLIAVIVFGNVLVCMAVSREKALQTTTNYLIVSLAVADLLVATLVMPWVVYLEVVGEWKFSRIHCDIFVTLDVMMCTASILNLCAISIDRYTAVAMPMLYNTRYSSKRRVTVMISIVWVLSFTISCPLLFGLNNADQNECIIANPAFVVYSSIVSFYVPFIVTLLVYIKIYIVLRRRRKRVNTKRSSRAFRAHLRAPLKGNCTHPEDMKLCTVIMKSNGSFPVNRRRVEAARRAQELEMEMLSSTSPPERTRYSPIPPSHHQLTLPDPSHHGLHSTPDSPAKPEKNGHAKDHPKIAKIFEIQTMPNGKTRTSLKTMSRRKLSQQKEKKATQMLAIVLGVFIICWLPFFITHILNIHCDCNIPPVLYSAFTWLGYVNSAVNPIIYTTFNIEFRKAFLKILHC

Sequence of histamine H1 (P35367 whole entry): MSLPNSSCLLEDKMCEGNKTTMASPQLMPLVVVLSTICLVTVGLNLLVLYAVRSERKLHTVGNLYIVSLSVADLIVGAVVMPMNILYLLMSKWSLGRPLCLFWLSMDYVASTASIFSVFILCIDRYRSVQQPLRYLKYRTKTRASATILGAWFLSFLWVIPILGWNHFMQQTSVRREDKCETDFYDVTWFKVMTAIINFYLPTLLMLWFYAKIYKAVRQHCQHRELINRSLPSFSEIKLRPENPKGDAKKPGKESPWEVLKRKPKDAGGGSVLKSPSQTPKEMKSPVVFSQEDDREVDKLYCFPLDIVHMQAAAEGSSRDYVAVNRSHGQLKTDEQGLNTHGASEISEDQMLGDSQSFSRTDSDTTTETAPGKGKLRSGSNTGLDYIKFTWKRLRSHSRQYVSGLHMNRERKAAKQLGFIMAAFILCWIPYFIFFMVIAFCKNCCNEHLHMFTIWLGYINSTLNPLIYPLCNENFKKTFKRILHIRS

As for `CN(C)C(=O)NC1CCC(CCN2CCN(c3cccc(Cl)c3Cl)CC2)CC1.Cl` (stereo not drawn) [trans-4-{2-[4-(2,3-dichlorophenyl)-piperazin-1-yl]-ethyl}-N,N-dimethylcarbamoyl-cyclohexylamine hydrochloride], at 5-HT2C, the “potency at 5-HT2C receptor site” value is “low potency”. Also, in data set [1], the “potency at adrenergic receptor sites” value was “low potency”. For the same compound, the “affinity for serotonin 5-HT1A receptors” value in data set [2] was “considerable affinity”. Also, the “potency at histamine H1 receptor site” value at histamine H1 is given as “low potency”. The “functional activity at serotonin 5-HT1A receptors” value in data set [3] is “partial agonist”. The “activity on biosynthesis (and release) modulating presynaptic D2 receptors” value at presynaptic D2 receptors (depending on the functional status of the particular dopaminergic system) was “both (partial) agonist and antagonist activity”. For the same compound, the “in vivo mode of action on the dopamine system” value at presynaptic D2 receptors (in vivo, preferential dopaminergic actions in the limbic regions) is listed as “dopamine system stabilizer”.
